US20220184000A1, “USE OF CANNABIDIOL IN THE TREATMENT OF DRAVET SYNDROME” (priority 2019, published 2022)

How the values were obtained:
Type in all cases: in vivo
Scn1a^+/− mice [1] = experiment: Static beam test (motor function), Study II; settings: CBD 100 mg/kg s.c. twice daily
Description: (§1) Here, Scn1a^+/− were randomly divided into two groups and subcutaneously injected with either CBD (100 mg/kg twice daily; n=12) or its vehicle (ethanol:Kolliphor®:0.9% saline=2:1:17; n=29) from P8 onwards until P52 or death (whichever was earlier).
The static beam task was further employed to analyse balance and coordination (Sedy, Urdzikova, Jendelova, & Sykova, 2008), where the animals were required to walk along a cylindrical elevated beam (100 cm long, 0.9 cm diameter and 50 cm height from floor) and enter a dark enclosure at the beam end. The mice were habituated to the task for three consecutive days before the test day. […] The test was video monitored (Sony DCR-SX21E) and blinded offline analysis was conducted (Observer XT 12, Noldus, The Netherlands) to evaluate the average number of foot slips made from two consecutive trials.
(§2) In Study II, the data were analysed in GraphPad Prism 6 software. […] Data obtained from rotarod, gait, social interaction (active interaction), EPM, sucrose preference, RAM (RME) tests were normally distributed and the differences between the three groups were analysed by one-way ANOVA. […] Parametric data are presented in scattered dot plot in the figures and are expressed as mean±SEM. Non-parametric data are presented in box plot in the figures and are expressed as median, min to max, and interquartile range (IQR). […]

Scn1a^−/− mice = experiment: Neonatal welfare scoring (TNW) in Scn1a^−/− mice, Study I
Description: 129S-Scn1a^tm1Keammjax heterozygote mice (Jackson Laboratory, USA) were maintained in and bred together to obtain Scn1a^−/− and wild type (WT) animals used for this Study (n=10 per group).
Following genotyping, animals were randomly divided into four groups WT vehicle-treated, WT CBD-treated, Scn1a^−/− vehicle-treated and Scn1a^−/− CBD-treated (n=10/group). They were injected subcutaneously twice daily with either CBD (100 mg/kg) or its vehicle (ethanol:Kolliphor®:0.9% saline=2:1:17) from P8 until P25 or death (whichever was earlier).
A twice daily welfare check was conducted throughout the entire duration of the study. Drug administration was conducted at 0800 h and followed by welfare checks. Conversely, afternoon welfare checks were conducted from 1600 h and followed by drug administration in order to provide the maximum possible time between doses. […]
The parameters used for the welfare assessment were: weight, natural activity (NA; 0-3), reflex/response to touch (RT; 0-3), orbital tightening (OT; 0-2), and body condition score (BC; 1-3). A total neonatal welfare score (TNW; range 0-8) was calculated by adding together scores from NA, RT, and […].
In Study I, the welfare parameters were analysed using SPSS 24 (IBM SPSS Statistics®, UK), whilst survival data were analysed using GraphPad Prism 6 software (GraphPad Software, Inc., USA). […] All the data are expressed as mean±SEM. […]

Scn1a^+/− mice [2] = experiment: Social interaction test, Study II; settings: CBD 100 mg/kg s.c. twice daily
Description: as §1
The social interaction test was conducted in the home cage of test mouse to assess the social behaviour of the animals (Sato, Mizuguchi, & Ikeda, 2013). On test day, cage mate(s) were removed from the home cage of the test mouse and the mouse remained in isolation for 15 minutes. A novel wild type mouse of same strain, same sex and similar weight to the test mouse was then introduced to the home cage of the test mouse. Activity was video recorded (Sony DCR-SX21E) for 10 minutes and the obtained video files were blinded at the end of all experiments. Time spent in active interactions (e.g. close following, sniffing, allogrooming/social grooming and mounting) and number of rearing (lifting the front paws on the air) occasions were coded offline using Observer XT 12 (Noldus, Netherlands). Aggressive behaviours were not considered as social interactions and were not coded. In this test, a reduced social interaction is considered as autistic-like behaviour (Sato et al., 2013), while increased rearing occasions is sign of defensive escapes (Kaplan et al., 2017).
as §2, with “software. Survival curves of Scn1a^+/− vehicle-treated and Scn1a^+/− CBD-treated group were compared using a Mantel-Cox test.” for “software.”

How did the “number of foot slips, Scn1a^+/− CBD-treated versus Scn1a^+/− vehicle-treated” value (Scn1a^+/− mice [1]; p=0.23, FIG. 3B) turn out when `C=C(C)[C@@H]1CCC(C)=C[C@H]1c1c(O)cc(CCCCC)cc1O` [CBD, cannabidiol] was run?
Its value is “no significant difference”.

And the “number of foot slips, Scn1a^+/− CBD-treated versus WT vehicle-treated” value (Scn1a^+/− mice [1]; p=0.48)?
Its value is “no significant difference”.

And the “mean total neonatal welfare (TNW) score” value (Scn1a^−/− mice; Scn1a^−/− CBD-treated group, CBD 100 mg/kg s.c. twice daily from P8 until P25 or death, n=10, mean±SEM, score range 0-8, vehicle group 3.66±0.04)?
The value was 2.85±0.04.

What about the “welfare scores versus vehicle-treated Scn1a^−/− mice (post hoc)” value (Scn1a^−/− mice; from P12 to P16, CBD 100 mg/kg s.c. twice daily, p<0.01, FIG. 1A) of the same compound?
The value was “delayed the worsening of welfare scores”.

What about the “rearing events, Scn1a^+/− CBD-treated versus WT vehicle-treated” value (Scn1a^+/− mice [2]; p=0.55) of the same compound?
Its value is “No difference”.

What about the “time spent on active interaction, Scn1a^+/− vehicle-treated compared to Scn1a^+/− CBD-treated” value (Scn1a^+/− mice [2]; statement describes vehicle group relative to CBD group (n=10), p=0.0003, FIG. 4A) of the same compound?
Its value is “significantly less time”.

What about the “number of rearing occasions, Scn1a^+/− vehicle-treated compared to Scn1a^+/− CBD-treated” value (Scn1a^+/− mice [2]; statement describes vehicle group relative to CBD group, p=0.0003, FIG. 4B) of the same compound?
The value was “significantly higher number of rearing occasions”.
